Holding throughout (type): cell-based
Assay [1] concerns the target T1, EGFR exon 20 NPG Ins D770_N771 (Ba/F3 cells) (Homo sapiens, UniProt P00533, INS770NPG).
T1 construct: expressed in transfected cells; host or cells: Ba/F3 (murine pro-B cells), retroviral transduction, puromycin selection, IL3-independent pool
The experiment in a line: Inhibitor activity on EGFR-dependent cell growth (CellTiter-Glo, 72 h), Ba/F3 EGFR exon 20 NPG Ins. As to conditions: read-out: BaF3 NPG IC50. An excerpt: Example A. Inhibitor Activity on EGFR-Dependent Cell Growth
Cell lines are generated by transducing Ba/F3 cells with retroviruses containing vectors with EGFR WT, EGFR L858R, EGFR exon 19del, EGFR L858R/C797S, EGFR exon 20 NPG Ins D770_N771, EGFR exon 20 ASV Ins V769_D770, EGFR exon 20 SVD Ins D770_N771, or EGFR exon 20 FQEA Ins A763_V764 genes and a puromycin selection marker. Transduced cells are selected with puromycin for 7 days and are then be transferred into culture media without Interleukin 3 (IL3). EGFR WT cells are maintained with supplemental EGF. Surviving cells are confirmed to express EGFR by Western blot and maintained as a pool. The IC50 date were included in Table 6 and Table 7.
1.1 Cells are harvested from flask into cell culture medium and the cell number counted.
1.2 Cells are diluted with culture medium to the desired density and 40 μL of cell suspension is added into each well of 384-well cell culture plate and the seeding density is 800 (FQEA, exon 19del), 600 (WT, NPG, L858R/C797S), or 400 (ASV, SVD, L858R) cells/well.
2 Compound Preparation and Treatment
2.1 Test compounds are dissolved to 10 mM in a DMSO stock solution. 45 μL of stock solution is transferred to a 384 polypropylene plate (pp-plate). Perform 3-fold, 10-point dilution via transferring 15 μL compound into 30 μL DMSO using a TECAN (EVO200) liquid handler.
2.2 Spin plates at room temperature at 1,000 RPM for 1 minute.
2.3 Transfer 120 nL of diluted compound from compound source plate into the cell plate.
2.4 After compound treatment for 72 hours, perform CTG detection for compound treatment plates as described in “Detection” section.
3.1 Plates are removed from incubators and equilibrated at room temperature for 15 minutes.
3.2 Thaw the CellTiter Glo reagents and allow to equilibrate to room temperature before the experiment.
3.3 Add 40 μL of CellTiter-Glo reagent into each well (at 1:1 to culture medium). Then place the plates at room temperature for 30 min followed by reading on EnVision.
4.1 Inhibition activity is calculated following the formula below:
% Inhibition=100×(LumHC−LumSample)/(LumHC−LumLC) • where HC is obtained from cells treated with 0.1% DMSO only; and LC is obtained from culture medium only.
4.2 2. Calculate the IC50 by fitting the Curve using Xlfit (v5.3.1.3), equation 201.
Y=Bottom+(Top−Bottom)/(1+10^((Log IC50−X)*HillSlope))

In assay [2] the target is T2, EGFR exon 20 ASV Ins V769_D770 (Ba/F3 cells) (Homo sapiens, UniProt P00533, INS769ASV).
T2 construct: expressed in transfected cells; host or cells: Ba/F3 (murine pro-B cells), retroviral transduction, puromycin selection, IL3-independent pool
T2 sequence (P00533 with tags, fused parts or gaps INS769ASV): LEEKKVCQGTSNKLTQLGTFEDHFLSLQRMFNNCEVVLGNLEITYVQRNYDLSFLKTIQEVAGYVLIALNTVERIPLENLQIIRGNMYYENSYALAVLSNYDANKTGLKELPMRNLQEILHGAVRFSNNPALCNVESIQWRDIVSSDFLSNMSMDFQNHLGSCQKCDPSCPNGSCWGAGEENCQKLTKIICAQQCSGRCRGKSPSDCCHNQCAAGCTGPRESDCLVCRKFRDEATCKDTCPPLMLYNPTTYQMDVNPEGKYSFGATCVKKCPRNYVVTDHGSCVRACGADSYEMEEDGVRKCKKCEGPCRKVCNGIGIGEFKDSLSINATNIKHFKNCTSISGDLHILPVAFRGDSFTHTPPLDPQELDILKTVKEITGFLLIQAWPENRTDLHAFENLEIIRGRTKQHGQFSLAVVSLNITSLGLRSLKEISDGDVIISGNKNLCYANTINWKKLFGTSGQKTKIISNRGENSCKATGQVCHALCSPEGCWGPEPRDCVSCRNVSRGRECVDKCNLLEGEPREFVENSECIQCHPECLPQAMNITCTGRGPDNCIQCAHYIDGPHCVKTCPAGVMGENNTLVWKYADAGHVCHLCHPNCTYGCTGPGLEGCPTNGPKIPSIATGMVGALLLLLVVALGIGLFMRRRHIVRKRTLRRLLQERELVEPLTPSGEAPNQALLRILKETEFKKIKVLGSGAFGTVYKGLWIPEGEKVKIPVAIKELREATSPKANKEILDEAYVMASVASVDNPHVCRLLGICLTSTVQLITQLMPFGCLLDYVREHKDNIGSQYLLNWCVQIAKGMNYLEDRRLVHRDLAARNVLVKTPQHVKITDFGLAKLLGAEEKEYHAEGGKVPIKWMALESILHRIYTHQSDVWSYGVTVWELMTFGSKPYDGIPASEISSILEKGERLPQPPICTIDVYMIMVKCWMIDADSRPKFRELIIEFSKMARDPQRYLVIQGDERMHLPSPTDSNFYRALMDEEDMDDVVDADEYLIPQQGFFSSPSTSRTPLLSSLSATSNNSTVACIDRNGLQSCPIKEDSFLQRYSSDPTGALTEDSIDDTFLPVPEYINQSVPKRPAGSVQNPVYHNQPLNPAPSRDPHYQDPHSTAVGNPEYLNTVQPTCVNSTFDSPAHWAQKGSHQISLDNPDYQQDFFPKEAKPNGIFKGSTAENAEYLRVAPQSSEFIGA
The experiment in a line: Inhibitor activity on EGFR-dependent cell growth (CellTiter-Glo, 72 h), Ba/F3 EGFR exon 20 ASV Ins. As to conditions: read-out: BaF3 ASV IC50. The gist of the method:
(§1)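 IC50s derive from a sigmoidal dose–response fit of CellTiter-Glo signal. The signal was normalised between […]-treated cells and cell-free medium. Ba/F3 mutant-EGFR cells, seeded at 400–800/well depending on the line, had 72 h of exposure to a 10-point, 3-fold compound series.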
(In general: Cellular ATP, detected with luciferase, serves as a proxy for viable cell number.)

A further assay addresses T3, EGFR WT (Ba/F3 cells) (Homo sapiens, UniProt P00533).
T3 construct: expressed in transfected cells; host or cells: Ba/F3 (murine pro-B cells), retroviral transduction, puromycin selection, maintained with EGF
The experiment in a line: Inhibitor activity on EGFR-dependent cell growth (CellTiter-Glo, 72 h), Ba/F3 EGFR WT. As to conditions: read-out: BaF3 WT IC50. In a few lines: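 This growth assay used Ba/F3 cells that depend on wild-type EGFR and are kept in EGF without IL3. Compounds were made up as 10 mM DMSO stocks and diluted 3-fold over 10 points. 120 nL went onto 600 cells/well. After 72 hours, 40 μL CellTiter-Glo was added and luminescence read on EnVision after 30 min.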

The target of assay [3] is T4, EGFR exon 20 SVD Ins D770_N771 (Ba/F3 cells) (Homo sapiens, UniProt P00533, INS770SVD).
T4 construct: expressed in transfected cells; host or cells: Ba/F3 (murine pro-B cells), retroviral transduction, puromycin selection, IL3-independent pool
T4 sequence (P00533 with tags, fused parts or gaps INS770SVD): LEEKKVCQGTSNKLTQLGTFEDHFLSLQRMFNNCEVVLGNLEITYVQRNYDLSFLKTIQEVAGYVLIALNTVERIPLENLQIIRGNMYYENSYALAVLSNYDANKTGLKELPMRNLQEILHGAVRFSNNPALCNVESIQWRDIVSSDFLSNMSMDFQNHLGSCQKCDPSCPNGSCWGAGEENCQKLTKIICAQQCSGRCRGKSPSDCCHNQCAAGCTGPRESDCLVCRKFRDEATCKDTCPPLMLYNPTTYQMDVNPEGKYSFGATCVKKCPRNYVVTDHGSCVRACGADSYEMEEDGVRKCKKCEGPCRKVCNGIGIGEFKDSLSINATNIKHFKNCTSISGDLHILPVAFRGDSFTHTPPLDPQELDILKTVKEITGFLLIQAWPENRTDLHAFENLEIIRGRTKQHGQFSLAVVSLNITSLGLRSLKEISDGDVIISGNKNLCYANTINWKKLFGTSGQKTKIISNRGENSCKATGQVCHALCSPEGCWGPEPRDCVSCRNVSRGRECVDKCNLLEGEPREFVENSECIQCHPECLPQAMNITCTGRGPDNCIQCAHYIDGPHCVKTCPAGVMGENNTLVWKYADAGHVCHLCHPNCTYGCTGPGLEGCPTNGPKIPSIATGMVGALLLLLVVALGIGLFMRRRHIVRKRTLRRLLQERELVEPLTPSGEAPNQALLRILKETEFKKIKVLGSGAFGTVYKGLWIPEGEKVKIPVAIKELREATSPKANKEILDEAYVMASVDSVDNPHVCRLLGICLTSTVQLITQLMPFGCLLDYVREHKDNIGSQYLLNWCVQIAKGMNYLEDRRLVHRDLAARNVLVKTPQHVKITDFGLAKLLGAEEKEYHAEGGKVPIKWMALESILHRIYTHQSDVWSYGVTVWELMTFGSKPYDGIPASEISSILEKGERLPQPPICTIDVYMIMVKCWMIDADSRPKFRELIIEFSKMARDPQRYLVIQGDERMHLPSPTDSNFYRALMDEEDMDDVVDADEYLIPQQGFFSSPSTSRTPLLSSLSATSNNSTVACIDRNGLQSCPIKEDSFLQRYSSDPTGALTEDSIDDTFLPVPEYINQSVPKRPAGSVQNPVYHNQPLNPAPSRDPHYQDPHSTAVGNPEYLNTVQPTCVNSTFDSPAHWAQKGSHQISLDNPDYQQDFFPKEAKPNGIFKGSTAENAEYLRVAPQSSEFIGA
The experiment in a line: Inhibitor activity on EGFR-dependent cell growth (CellTiter-Glo, 72 h), Ba/F3 EGFR exon 20 SVD Ins. As to conditions: read-out: BaF3 SVD IC50. The gist of the method: as §1

A value given as a limit tells only on which side of the number the result lay.

T3 sequence (P00533 25-1210): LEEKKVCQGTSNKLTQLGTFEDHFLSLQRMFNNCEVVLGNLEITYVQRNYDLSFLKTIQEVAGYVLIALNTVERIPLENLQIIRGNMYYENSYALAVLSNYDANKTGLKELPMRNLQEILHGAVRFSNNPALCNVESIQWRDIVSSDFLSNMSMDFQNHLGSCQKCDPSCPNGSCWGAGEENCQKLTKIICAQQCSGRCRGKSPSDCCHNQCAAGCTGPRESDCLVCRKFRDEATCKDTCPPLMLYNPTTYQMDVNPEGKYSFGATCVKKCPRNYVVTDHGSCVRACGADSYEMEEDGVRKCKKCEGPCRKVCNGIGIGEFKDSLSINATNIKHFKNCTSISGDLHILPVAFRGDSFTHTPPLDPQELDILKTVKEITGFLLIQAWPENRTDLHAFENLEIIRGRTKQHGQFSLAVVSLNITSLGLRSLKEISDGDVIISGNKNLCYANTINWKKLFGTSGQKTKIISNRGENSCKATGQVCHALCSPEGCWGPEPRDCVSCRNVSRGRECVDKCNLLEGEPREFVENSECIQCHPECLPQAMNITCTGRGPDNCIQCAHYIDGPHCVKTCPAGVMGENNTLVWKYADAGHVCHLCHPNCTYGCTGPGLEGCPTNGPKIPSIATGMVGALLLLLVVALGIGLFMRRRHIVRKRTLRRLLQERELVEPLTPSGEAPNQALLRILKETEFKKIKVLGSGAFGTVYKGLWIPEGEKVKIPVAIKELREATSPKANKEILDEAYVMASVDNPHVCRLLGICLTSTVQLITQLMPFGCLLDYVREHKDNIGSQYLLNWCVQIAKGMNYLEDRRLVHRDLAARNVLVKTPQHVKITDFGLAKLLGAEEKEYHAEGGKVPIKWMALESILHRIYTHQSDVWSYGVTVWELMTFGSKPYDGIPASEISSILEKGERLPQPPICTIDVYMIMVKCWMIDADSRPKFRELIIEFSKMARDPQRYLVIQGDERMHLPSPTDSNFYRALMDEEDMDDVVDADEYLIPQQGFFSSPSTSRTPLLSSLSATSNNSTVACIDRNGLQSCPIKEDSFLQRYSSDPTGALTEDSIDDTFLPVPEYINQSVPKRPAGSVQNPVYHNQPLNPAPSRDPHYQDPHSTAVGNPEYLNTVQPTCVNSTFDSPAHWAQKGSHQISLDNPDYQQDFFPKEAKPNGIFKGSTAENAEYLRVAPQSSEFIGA
T1 sequence (P00533 with tags, fused parts or gaps INS770NPG): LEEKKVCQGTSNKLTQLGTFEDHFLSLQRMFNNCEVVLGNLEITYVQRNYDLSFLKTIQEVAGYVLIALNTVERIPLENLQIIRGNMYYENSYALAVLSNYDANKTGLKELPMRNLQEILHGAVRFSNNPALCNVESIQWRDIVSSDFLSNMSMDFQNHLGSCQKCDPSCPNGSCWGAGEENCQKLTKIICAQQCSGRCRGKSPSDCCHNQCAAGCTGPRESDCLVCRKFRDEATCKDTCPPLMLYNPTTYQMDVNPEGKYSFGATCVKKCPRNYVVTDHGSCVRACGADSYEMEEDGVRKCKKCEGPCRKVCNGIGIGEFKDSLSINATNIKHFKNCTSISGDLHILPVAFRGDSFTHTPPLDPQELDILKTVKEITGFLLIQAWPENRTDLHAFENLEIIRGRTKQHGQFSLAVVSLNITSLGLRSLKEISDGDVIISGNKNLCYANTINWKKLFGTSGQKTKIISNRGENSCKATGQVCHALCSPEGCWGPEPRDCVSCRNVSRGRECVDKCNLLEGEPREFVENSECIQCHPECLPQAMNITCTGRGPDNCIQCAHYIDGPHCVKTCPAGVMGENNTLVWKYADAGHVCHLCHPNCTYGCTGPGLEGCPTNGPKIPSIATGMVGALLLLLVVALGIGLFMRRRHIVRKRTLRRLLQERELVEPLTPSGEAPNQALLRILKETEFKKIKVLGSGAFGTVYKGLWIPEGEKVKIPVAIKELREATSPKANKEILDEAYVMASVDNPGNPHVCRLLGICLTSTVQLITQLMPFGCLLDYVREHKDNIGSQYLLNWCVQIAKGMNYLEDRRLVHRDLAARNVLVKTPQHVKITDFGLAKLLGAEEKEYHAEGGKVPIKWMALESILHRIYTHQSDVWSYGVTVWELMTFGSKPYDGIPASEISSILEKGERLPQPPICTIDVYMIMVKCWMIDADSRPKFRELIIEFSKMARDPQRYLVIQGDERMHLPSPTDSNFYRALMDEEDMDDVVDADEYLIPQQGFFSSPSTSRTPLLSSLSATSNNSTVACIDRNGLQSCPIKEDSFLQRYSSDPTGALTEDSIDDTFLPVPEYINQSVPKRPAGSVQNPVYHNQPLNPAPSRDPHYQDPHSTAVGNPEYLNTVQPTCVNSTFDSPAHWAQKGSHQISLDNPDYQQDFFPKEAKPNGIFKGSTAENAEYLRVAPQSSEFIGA

Regarding `C=CC(=O)N1CCC2(CC1)CNC(=O)c1c2[nH]c(-c2ccncc2F)c1Nc1cccc(Cl)c1F` [Compound 586, 3′-[(3-chloro-2-fluorophenyl)amino]-2′-(3-fluoropyridin-4-yl)-1-(prop-2-enoyl)-5′,6′-dihydro-1′H-spiro[piperidine-4,7′-pyrrolo[3,2-c]pyridin]-4′-one], the IC50 (commonly the point on the concentration scale where inhibition reaches its midpoint) in assay [1] is below 100 nM; in assay [2] it was below 100 nM; at EGFR WT (Ba/F3 cells) it was 100 to 1000 nM; in assay [3] it was below 100 nM.
On to `C=CC(=O)N1CCC2(CC1)CNC(=O)c1c2[nH]c(-c2ccncc2F)c1Nc1ccc(F)c(Cl)c1` [Compound 587, 3′-[(3-chloro-4-fluorophenyl)amino]-2′-(3-fluoropyridin-4-yl)-1-(prop-2-enoyl)-5′,6′-dihydro-1′H-spiro[piperidine-4,7′-pyrrolo[3,2-c]pyridin]-4′-one], for which the 50% inhibitory concentration (IC50) in assay [1] was below 100 nM; in assay [2], below 100 nM; on EGFR WT (Ba/F3 cells), 100 to 1000 nM; in assay [3], below 100 nM.
With `C=CC(=O)N1CCC2(CC1)CNC(=O)c1c2[nH]c(-c2ccncc2F)c1Nc1ccc(Cl)c(F)c1` [Compound 588, 3′-[(4-chloro-3-fluorophenyl)amino]-2′-(3-fluoropyridin-4-yl)-1-(prop-2-enoyl)-5′,6′-dihydro-1′H-spiro[piperidine-4,7′-pyrrolo[3,2-c]pyridin]-4′-one], the IC50 (in assay [1]; in assay [2]; at EGFR WT (Ba/F3 cells); in assay [3]) was below 100 nM each time.
As for `C=CC(=O)N1CCC2(CC1)CNC(=O)c1c2[nH]c(-c2ccncc2F)c1Nc1cccc(Cl)c1Cl` [Compound 589, 3′-[(2,3-dichlorophenyl)amino]-2′-(3-fluoropyridin-4-yl)-1-(prop-2-enoyl)-5′,6′-dihydro-1′H-spiro[piperidine-4,7′-pyrrolo[3,2-c]pyridin]-4′-one], the IC50 in assay [1] was below 100 nM; in assay [2], below 100 nM; on EGFR WT (Ba/F3 cells), 100 to 1000 nM; in assay [3], below 100 nM.
For `C=CC(=O)N1CCC2(CC1)CNC(=O)c1c2[nH]c(-c2ccncc2F)c1Nc1ccc(Cl)c(Cl)c1` [Compound 590, 3′-[(3,4-dichlorophenyl)amino]-2′-(3-fluoropyridin-4-yl)-1-(prop-2-enoyl)-5′,6′-dihydro-1′H-spiro[piperidine-4,7′-pyrrolo[3,2-c]pyridin]-4′-one], the IC50 in assay [1] was 100 to 1000 nM; in assay [2] it was above 1000 nM; on EGFR WT (Ba/F3 cells), above 1000 nM; in assay [3], above 1000 nM.
Regarding `CCn1cc(Nc2nccc(-c3[nH]c4c(c3Nc3cccc(Cl)c3OC)C(=O)NCC4)n2)nn1` [Compound 594, 3-[(3-chloro-2-methoxyphenyl)amino]-2-{2-[(1-ethyl-1,2,3-triazol-4-yl)amino]pyrimidin-4-yl}-1H,5H,6H,7H-pyrrolo[3,2-c]pyridin-4-one], the IC50 in assay [1] was below 100 nM; in assay [2], below 100 nM; at EGFR WT (Ba/F3 cells) it was 100 to 1000 nM; in assay [3], below 100 nM.
Turning to `COc1ncc2nccc(-c3[nH]c4c(c3Nc3cccc(F)c3OC)C(=O)NC(C(F)(F)F)C4)c2n1` (stereo not drawn) [Compound 595, 3-[(3-fluoro-2-methoxyphenyl)amino]-2-{2-methoxypyrido[3,2-d]pyrimidin-8-yl}-6-(trifluoromethyl)-1H,5H,6H,7H-pyrrolo[3,2-c]pyridin-4-one], the half-inhibitory concentration (IC50) (in assay [1]; in assay [2]; at EGFR WT (Ba/F3 cells); in assay [3]) was 100 to 1000 nM throughout.
In the case of `CC#CC(=O)N1CCC2(CC1)CNC(=O)c1c2[nH]c(-c2ccncc2F)c1Nc1cccc(F)c1OC` [Compound 609, 1-(but-2-ynoyl)-3′-[(3-fluoro-2-methoxyphenyl)amino]-2′-(3-fluoropyridin-4-yl)-5′,6′-dihydro-1′H-spiro[piperidine-4,7′-pyrrolo[3,2-c]pyridin]-4′-one], the IC50 is above 1000 nM in assay [1], 100 to 1000 nM in assay [2], above 1000 nM at EGFR WT (Ba/F3 cells) and 100 to 1000 nM in assay [3].
Take `COc1c(Cl)cccc1Nc1c(-c2ccnc(-c3cnn(C)c3)n2)[nH]c2c1C(=O)NCC2` [compound 121]: the IC50 in assay [1] is below 100 nM; in assay [2] it was below 100 nM; at EGFR WT (Ba/F3 cells), 100 to 1000 nM; in assay [3] it was below 100 nM.
Regarding `COc1c(F)cccc1Nc1c(-c2ccnc3c(N)noc23)[nH]c2c1C(=O)NCC2` [compound 523, 2-{3-amino-[1,2]oxazolo[4,5-b]pyridin-7-yl}-3-[(3-fluoro-2-methoxyphenyl)amino]-1H,5H,6H,7H-pyrrolo[3,2-c]pyridin-4-one; trifluoroacetic acid], the IC50 is below 100 nM in assay [1], 100 to 1000 nM in assay [2], 100 to 1000 nM at EGFR WT (Ba/F3 cells) and below 100 nM in assay [3].
For `COc1c(Cl)cccc1Nc1c(-c2ccnc(Nc3ccn(CC(C)(C)O)n3)n2)[nH]c2c1C(=O)NCC2` [compound 537, 3-[(3-chloro-2-methoxyphenyl)amino]-2-(2-{[1-(2-hydroxy-2-methylpropyl)pyrazol-3-yl]amino}pyrimidin-4-yl)-1H,5H,6H,7H-pyrrolo[3,2-c]pyridin-4-one], the IC50 was below 100 nM in assay [1], below 100 nM in assay [2], 100 to 1000 nM at EGFR WT (Ba/F3 cells) and below 100 nM in assay [3].
For `CCn1nncc1Nc1nccc(-c2[nH]c3c(c2Nc2cccc(Cl)c2OC)C(=O)NCC3)n1` [compound 538, 3-[(3-chloro-2-methoxyphenyl)amino]-2-{2-[(3-ethyl-1,2,3-triazol-4-yl)amino]pyrimidin-4-yl}-1H,5H,6H,7H-pyrrolo[3,2-c]pyridin-4-one], the IC50 in assay [1] is below 100 nM; in assay [2], below 100 nM; at EGFR WT (Ba/F3 cells), 100 to 1000 nM; in assay [3], below 100 nM.
For `COc1c(Cl)cccc1Nc1c(-c2ccnc(Nc3cnnn3CS(C)(=O)=O)n2)[nH]c2c1C(=O)NCC2` [compound 539, 3-[(3-chloro-2-methoxyphenyl)amino]-2-(2-{[3-(methanesulfonylmethyl)-1,2,3-triazol-4-yl]amino}pyrimidin-4-yl)-1H,5H,6H,7H-pyrrolo[3,2-c]pyridin-4-one], the IC50 was 100 to 1000 nM in assay [1], 100 to 1000 nM in assay [2], above 1000 nM on EGFR WT (Ba/F3 cells) and 100 to 1000 nM in assay [3].
In the case of `COc1c(Cl)cccc1Nc1c(-c2ccnc(-c3ccnnc3)n2)[nH]c2c1C(=O)NCC2` [compound 542, 3-[(3-chloro-2-methoxyphenyl)amino]-2-[2-(pyridazin-4-yl)pyrimidin-4-yl]-1H,5H,6H,7H-pyrrolo[3,2-c]pyridin-4-one], the IC50 is 100 to 1000 nM in assay [1], above 1000 nM in assay [2], above 1000 nM at EGFR WT (Ba/F3 cells) and above 1000 nM in assay [3].
Turning to `COc1c(Cl)cccc1Nc1c(-c2ccnc(-c3cnn(C)n3)n2)[nH]c2c1C(=O)NCC2` [compound 543, 3-[(3-chloro-2-methoxyphenyl)amino]-2-[2-(2-methyl-1,2,3-triazol-4-yl)pyrimidin-4-yl]-1H,5H,6H,7H-pyrrolo[3,2-c]pyridin-4-one], the IC50 in assay [1] is below 100 nM; in assay [2], 100 to 1000 nM; on EGFR WT (Ba/F3 cells), above 1000 nM; in assay [3], below 100 nM.

The record behind these values is patent publication US20240101576A1, “HETEROCYCLIC INHIBITORS OF EGFR AND/OR HER2, FOR USE IN THE TREATMENT OF CANCER” (Scorpion Therapeutics, Inc., priority 2020, published 2024).
